Test results reported in US5332731A, “Cephalosporin derivatives” (Meiji Seika Kaisha, Ltd., priority 1989, dated 1994).
Converted amounts (≈) assume the structure as drawn.

How the values were obtained:
Experiment in all cases: antibacterial activity, MIC by standard serial dilution method
Assay type in all cases: cell-based
[1] = system: Enterobacter cloacae GN7471
Text: (§1) Antibacterial activity of Compounds Nos. 1, 3, 5, 7, 9, 11, 13, 15, 17, 19, 21, 23, 25, 27, 29, 31, 33, 35 and 37 indentified hereinbefore which are the particular examples of the new cephalosporin derivative of general formula (I) according to this invention and which are in the form of the free carboxylic acid was estimated by determining the minimum inhibitory concentrations (MIC., μg/ml) of these compounds against a variety of bacteria according to a standard serial dilution method.

[2] = system: Staphylococcus aureus 209P JC-1
Text: as §1

[3] = system: Marganella morganii 1510/S-1
Text: as §1

Escherichia coli 255/S-1 = conditions: 255/S1
Text: as §1

[4] = system: Citrobacter freundii GN346
Text: as §1

Marganella morganii 1510 = system: Marganella morganii 1510
Text: as §1

[5] = system: Staphylococcus epidermidis ATCC14990
Text: as §1

[6] = system: Pseudomonas aeruginosa GN10362
Text: as §1

Escherichia coli 255 = system: Escherichia coli 255
Text: as §1

Escherichia coli GN206 = system: Escherichia coli GN206
Text: as §1

[7] = system: Citrobacter freundii GN346/16
Text: as §1

[8] = system: Escherichia coli NIHJ JC-2; conditions: NIHJJC2
Text: as §1

[9] = system: Enterobacter hirae ATCC8043
Text: as §1

[10] = system: Serratia marcescens No. 1
Text: as §1

[11] = system: Entrobacter faecalis W-73
Text: as §1

Proteus vulgaris GN76 = system: Proteus vulgaris GN76
Text: as §1

[12] = system: Proteus vulgaris GN76/C-1
Text: as §1

[13] = system: Enterobacter cloacae G-0008; conditions: G0008
Text: as §1

[14] = system: Serratia marcescens GN10857
Text: as §1

[15] = system: Klebsiella pneumoniae GN69
Text: as §1

[16] = system: Escherichia coli W3630 RGN823; conditions: W3630RGN823
Text: as §1

[17] = system: Klebsiella pneumoniae PCI602
Text: as §1

Structure (SMILES) | MIC [1] [µg/mL] | MIC [2] [µg/mL] | MIC [3] [µg/mL] | MIC (Escherichia coli 255/S-1) [µg/mL] | MIC [4] [µg/mL] | MIC (Marganella morganii 1510) [µg/mL] | MIC [5] [µg/mL] | MIC [6] [µg/mL] | MIC (Escherichia coli 255) [µg/mL] | MIC (Escherichia coli GN206) [µg/mL] | MIC [7] [µg/mL] | MIC [8] [µg/mL] | MIC [9] [µg/mL] | MIC [10] [µg/mL] | MIC [11] [µg/mL] | MIC (Proteus vulgaris GN76) [µg/mL] | MIC [12] [µg/mL] | MIC [13] [µg/mL] | MIC [14] [µg/mL] | MIC [15] [µg/mL] | other results
CO/N=C(\C(=O)NC1C(=O)N2C(C(=O)O)=C(SCC3CCCO3)CS[C@H]12)c1csc(N)n1 (stereo partly shown) [Compound No. 1, 7-[(Z)-2-(2-aminothiazol-4-yl)-2-methoxyiminoacetamido]-3-tetrahydrofurfurylthio-3-cephem-4-carboxylic acid] | 50 (≈ 100 µM) | 0.2 (≈ 0.4 µM) | 0.39 (≈ 0.781 µM) | 0.78 (≈ 1.56 µM) | > 100 | 50 (≈ 100 µM) | 0.78 (≈ 1.56 µM) | > 100 | 25 (≈ 50 µM) | 6.25 (≈ 12.5 µM) | 3.13 (≈ 6.27 µM) | 1.56 (≈ 3.12 µM) | 12.5 (≈ 25 µM) | 0.78 (≈ 1.56 µM) | 100 (≈ 200 µM) | 0.2 (≈ 0.4 µM) | 3.13 (≈ 6.27 µM) | 1.56 (≈ 3.12 µM) | 100 (≈ 200 µM) | 0.39 (≈ 0.781 µM) | MIC [16]: 1.56 µg/mL (≈ 3.12 µM); MIC [17]: 0.78 µg/mL (≈ 1.56 µM)
CO/N=C(\C(=O)NC1C(=O)N2C(C(=O)O)=C(SC3CCOC3)CS[C@H]12)c1csc(N)n1 (stereo partly shown) [Compound No. 3, 7-[(Z)-2-(2-aminothiazol-4-yl)-2-methoxyiminoacetamido]-3-(tetrahydrofuran-3-yl)thio-3-cephem-4-carboxylic acid] | 50 (≈ 103 µM) | 0.2 (≈ 0.412 µM) | 0.2 (≈ 0.412 µM) | 0.39 (≈ 0.803 µM) | > 100 | 25 (≈ 51.5 µM) | 0.39 (≈ 0.803 µM) | > 100 | 50 (≈ 103 µM) | 12.5 (≈ 25.7 µM) | 3.13 (≈ 6.45 µM) | 0.39 (≈ 0.803 µM) | 12.5 (≈ 25.7 µM) | 12.5 (≈ 25.7 µM) | > 100 | 0.1 (≈ 0.206 µM) | 1.56 (≈ 3.21 µM) | 12.5 (≈ 25.7 µM) | 100 (≈ 206 µM) | 0.2 (≈ 0.412 µM) | MIC [16]: 0.78 µg/mL (≈ 1.61 µM); MIC [17]: 0.2 µg/mL (≈ 0.412 µM)
CO/N=C(\C(=O)NC1C(=O)N2C(C(=O)O)=C(SCC3COC(C)(C)O3)CS[C@H]12)c1csc(N)n1 (stereo partly shown) [Compound No. 5, 7-[(Z)-2-(2-aminothiazol-4-yl)-2-methoxyiminoacetamido]-3-(2,2-dimethyl-1,3-dioxolan-4-yl)methylthio-3-cephem-4-carboxylic acid] | 50 (≈ 94.4 µM) | 1.56 (≈ 2.95 µM) | 0.78 (≈ 1.47 µM) | 3.13 (≈ 5.91 µM) | > 100 | 100 (≈ 189 µM) | 1.56 (≈ 2.95 µM) | > 100 | 100 (≈ 189 µM) | 12.5 (≈ 23.6 µM) | 6.25 (≈ 11.8 µM) | 1.56 (≈ 2.95 µM) | 25 (≈ 47.2 µM) | 1.56 (≈ 2.95 µM) | 50 (≈ 94.4 µM) | 0.39 (≈ 0.736 µM) | 1.56 (≈ 2.95 µM) | 3.13 (≈ 5.91 µM) | 50 (≈ 94.4 µM) | 0.78 (≈ 1.47 µM) | MIC [16]: 1.56 µg/mL (≈ 2.95 µM); MIC [17]: 1.56 µg/mL (≈ 2.95 µM)
CO/N=C(\C(=O)NC1C(=O)N2C(C(=O)O)=C(SC3CCOCC3)CS[C@H]12)c1csc(N)n1 (stereo partly shown) [Compound No. 7, 7-[(Z)-2-(2-aminothiazol-4-yl)-2-methoxyiminoacetamido]-3-(tetrahydropyran-4-yl)thio-3-cephem-4-carboxylic acid] | 50 (≈ 100 µM) | 0.78 (≈ 1.56 µM) | 0.2 (≈ 0.4 µM) | 0.78 (≈ 1.56 µM) | > 100 | 50 (≈ 100 µM) | 0.39 (≈ 0.781 µM) | > 100 | 50 (≈ 100 µM) | 12.5 (≈ 25 µM) | 6.25 (≈ 12.5 µM) | 0.78 (≈ 1.56 µM) | 6.25 (≈ 12.5 µM) | 0.78 (≈ 1.56 µM) | > 100 | 0.2 (≈ 0.4 µM) | 0.78 (≈ 1.56 µM) | 0.78 (≈ 1.56 µM) | 100 (≈ 200 µM) | 0.78 (≈ 1.56 µM) | MIC [16]: 1.56 µg/mL (≈ 3.12 µM); MIC [17]: 0.39 µg/mL (≈ 0.781 µM)
CO/N=C(\C(=O)NC1C(=O)N2C(C(=O)O)=C(SCC3CCOC(C)(C)O3)CS[C@H]12)c1csc(N)n1 (stereo partly shown) [Compound No. 9, 7-[(Z)-2-(2-aminothiazol-4-yl)-2-methoxyiminoacetamido]-3-(2,2-dimethyl-1,3-dioxan-4-yl)methylthio-3-cephem-4-carboxylic acid] | 50 (≈ 92 µM) | 1.56 (≈ 2.87 µM) | 1.56 (≈ 2.87 µM) | 6.25 (≈ 11.5 µM) | > 100 | 100 (≈ 184 µM) | 1.56 (≈ 2.87 µM) | > 100 | 100 (≈ 184 µM) | 12.5 (≈ 23 µM) | 6.25 (≈ 11.5 µM) | 3.13 (≈ 5.76 µM) | 25 (≈ 46 µM) | 3.13 (≈ 5.76 µM) | 100 (≈ 184 µM) | 0.78 (≈ 1.43 µM) | 3.13 (≈ 5.76 µM) | 3.13 (≈ 5.76 µM) | 50 (≈ 92 µM) | 1.56 (≈ 2.87 µM) | MIC [16]: 1.56 µg/mL (≈ 2.87 µM); MIC [17]: 3.13 µg/mL (≈ 5.76 µM)
Nc1nc(/C(=N/O)C(=O)NC2C(=O)N3C(C(=O)O)=C(SCC4CCCO4)CS[C@H]23)cs1 (stereo partly shown) [Compound No. 11, 7-[(Z)-2-(2-aminothiazol-4-yl)-2-hydroxyiminoacetamido]-3-tetrahydrofurfurylthio-3-cephem-4-carboxylic acid] | 50 (≈ 103 µM) | 0.2 (≈ 0.412 µM) | 0.39 (≈ 0.803 µM) | 0.78 (≈ 1.61 µM) | > 100 | 50 (≈ 103 µM) | 0.2 (≈ 0.412 µM) | > 100 | 50 (≈ 103 µM) | 12.5 (≈ 25.7 µM) | 6.25 (≈ 12.9 µM) | 1.56 (≈ 3.21 µM) | 6.25 (≈ 12.9 µM) | 1.56 (≈ 3.21 µM) | 6.25 (≈ 12.9 µM) | 0.78 (≈ 1.61 µM) | 6.75 (≈ 13.9 µM) | 1.56 (≈ 3.21 µM) | > 100 | 0.78 (≈ 1.61 µM) | MIC [16]: 1.56 µg/mL (≈ 3.21 µM); MIC [17]: 0.78 µg/mL (≈ 1.61 µM)
Nc1nc(/C(=N/O)C(=O)NC2C(=O)N3C(C(=O)O)=C(SC4CCOC4)CS[C@H]23)cs1 (stereo partly shown) [Compound No. 13, 7-[(Z)-2-(2-aminothiazol-4-yl)-2-hydroxyiminoacetamido]-3-(tetrahydrofuran-3-yl)thio-3-cephem-4-carboxylic acid] | 100 (≈ 212 µM) | 0.2 (≈ 0.424 µM) | 0.2 (≈ 0.424 µM) | 0.39 (≈ 0.827 µM) | > 100 | 12.5 (≈ 26.5 µM) | 0.2 (≈ 0.424 µM) | > 100 | 50 (≈ 106 µM) | 12.5 (≈ 26.5 µM) | 3.13 (≈ 6.64 µM) | 0.39 (≈ 0.827 µM) | 3.13 (≈ 6.64 µM) | 3.13 (≈ 6.64 µM) | 12.5 (≈ 26.5 µM) | 1.56 (≈ 3.31 µM) | 6.25 (≈ 13.3 µM) | 6.25 (≈ 13.3 µM) | > 100 | 0.39 (≈ 0.827 µM) | MIC [16]: 1.56 µg/mL (≈ 3.31 µM); MIC [17]: 0.2 µg/mL (≈ 0.424 µM)
Nc1nc(/C(=N/O)C(=O)NC2C(=O)N3C(C(=O)O)=C(SC4CCOCC4)CS[C@H]23)cs1 (stereo partly shown) [Compound No. 15, 7-[(Z)-2-(2-aminothiazol-4-yl) -2-hydroxyiminoacetamido]-3-(tetrahydropyran-4-yl)thio-3-cephem-4-carboxylic acid] | 100 (≈ 206 µM) | 0.2 (≈ 0.412 µM) | 0.2 (≈ 0.412 µM) | 0.39 (≈ 0.803 µM) | > 100 | 50 (≈ 103 µM) | 0.2 (≈ 0.412 µM) | > 100 | 50 (≈ 103 µM) | 12.5 (≈ 25.7 µM) | 6.25 (≈ 12.9 µM) | 0.78 (≈ 1.61 µM) | 6.25 (≈ 12.9 µM) | 6.25 (≈ 12.9 µM) | 1.56 (≈ 3.21 µM) | 1.56 (≈ 3.21 µM) | 6.25 (≈ 12.9 µM) | 1.56 (≈ 3.21 µM) | > 100 | 0.78 (≈ 1.61 µM) | MIC [16]: 12.5 µg/mL (≈ 25.7 µM); MIC [17]: 0.39 µg/mL (≈ 0.803 µM)
CC1(C)OCCC(CSC2=C(C(=O)O)N3C(=O)C(NC(=O)/C(=N\O)c4csc(N)n4)[C@H]3SC2)O1 (stereo partly shown) [Compound No. 17, 7 - [(Z)-2-(2-aminothiazol-4-yl) -2-hydroxyiminoacetamido]-3-(2,2-dimethyl-1,3-dioxan-4-yl)methylthio-3-cephem-4-carboxylic acid] | > 100 | 0.78 (≈ 1.47 µM) | 3.13 (≈ 5.91 µM) | 6.25 (≈ 11.8 µM) | > 100 | > 100 | 0.39 (≈ 0.736 µM) | > 100 | 100 (≈ 189 µM) | 25 (≈ 47.2 µM) | 12.5 (≈ 23.6 µM) | 6.25 (≈ 11.8 µM) | 25 (≈ 47.2 µM) | 12.5 (≈ 23.6 µM) | 6.25 (≈ 11.8 µM) | 3.13 (≈ 5.91 µM) | 25 (≈ 47.2 µM) | 12.5 (≈ 23.6 µM) | > 100 | 3.13 (≈ 5.91 µM) | MIC [16]: 6.25 µg/mL (≈ 11.8 µM); MIC [17]: 6.25 µg/mL (≈ 11.8 µM)
CO/N=C(\C(=O)NC1C(=O)N2C(C(=O)O)=C(SC3COCOC3)CSC12)c1csc(N)n1 (stereo not shown) [Compound No. 19] | 50 (≈ 99.7 µM) | 0.39 (≈ 0.778 µM) | 0.1 (≈ 0.199 µM) | 0.39 (≈ 0.778 µM) | > 100 | 12.5 (≈ 24.9 µM) | 0.78 (≈ 1.56 µM) | > 100 | 25 (≈ 49.8 µM) | 3.13 (≈ 6.24 µM) | 3.13 (≈ 6.24 µM) | 0.39 (≈ 0.778 µM) | 25 (≈ 49.8 µM) | 0.78 (≈ 1.56 µM) | 100 (≈ 199 µM) | 0.05 (≈ 0.0997 µM) | 1.56 (≈ 3.11 µM) | 0.39 (≈ 0.778 µM) | 50 (≈ 99.7 µM) | 0.2 (≈ 0.399 µM) | MIC [16]: 0.78 µg/mL (≈ 1.56 µM); MIC [17]: < 0.025 µg/mL
